Assay results from US10556860B2, “hTERT modulators and methods of use” (Arizona Board of Regents on Behalf of the University of …, priority 2015, dated 2020).

How the values were obtained:
[1] = tested on: hTERT mRNA in melanoma cells carrying WT, G124A, G124/125A, G138/139A and G146A; experiment: qPCR of hTERT mRNA in melanoma cells (WT and mutants); assay type: cell-based, human; conditions: WT and all mutant melanoma cells, 72 h, 1 μM
Method: Cell cultures. MCF7 and melanoma (UACC 383) cells were cultured in media of RPMI-1640 with 10% FBS and 1% penicillin/streptomycin. For melanoma cells UACC 2512, UACC 3090, UACC 1729, and UACC 2528, 20% FBS was included in the RPMI media instead of 10% FBS. Cells were incubated at 37° C. with 5% CO2.
qPCR. MCF7 and melanoma cells were treated with GTC365 and BRACO-19 for 72 h. Total RNA was extracted using an RNeasy mini-prep kit (Qiagen) and quantitated by measuring absorbance at 260 nm. cDNA was synthesized using a Takara PrimeScript™ RT Reagent Kit with gDNA eraser and then used as a template for qPCR. The qPCR was performed using Kapa Probe Fast qPCR Master Mix with ABI Taqman probes of hTERT (Hs00972656_m1), BCL2 (HS00608023_m1, FAM-labeled) or MYC (Hs00153408_m1), and GAPDH (Hs02758991_g1, VIC-labeled). The Ct values were measured by running Rotor-Gene Q, and the relative quantity of hTERT, BCL2, and MYC mRNA was obtained compared to GAPDH as an internal control.
To determine the cellular effect of GTC365 on proliferation as well as suppression of the activation of hTERT by G124A, G124/125A, G138/139A, and G146A mutants, melanoma cell lines were used alongside a WT cell line. All mutants increased the mRNA level of hTERT, compared to WT melanoma cells, in the 6.6-34-fold range. […]

[2] = tested on: melanoma cell lines with characterized TERT promoter status (19 cell lines); experiment: 6-point 72 h MTS proliferation assay, WT versus promoter mutant melanoma cell lines; assay type: cell-based, human
Method: FIGS. 13A-13C are a set of graphs showingselective reduction in viability (A) and hTERT expression (B) in melanoma cells carrying hTERT core promotor mutations. NHM-002 (normal human melanocytes) and a G124A mutant cell line were treated with vehicle, 1.25, 2.5, and 5 μM GTC365 for 72 h. Viability was reduced in hTERT mutant melanoma cells by 50% (left). […] (C) Differential response to GTC365 in WT and promoter mutant cell lines.
Next, to assess the selectivity of GTC365 for hTERT-dependent cancer cells relative to normal precursorcells, we compared the effects of a range of […] on viability at 72 h in normal humanmelanocytes (NHM-002) relative to those of UACC-903, aG124A mutant (FIG. 13A). […] To confirm that the reduction in cell viability was aresult of hTERT downregulation, we performed reverse transcription and qPCR to measure the mRNA level of hTERT expression in cells treated with DMSO or 5 μMGTC365. hTERT expression was reduced by 41% in themelanoma cell line after 72 h but was undetectable in normalmelanocytes, even in the absence of GTC365 (FIG. 13B). Finally, tobroadly assess the selectivity of GTC365 for hTERT promotermutant versus WT cells, we conducted a 6-point 72 h MTSproliferation assay to determine EC50s in 14 additional melanoma cell lines with characterized TERT promoter status([…]) (FIG. 13C). […]

[3] = molecular target: G124/125A 5-12 G-quadruplex of hTERT core promoter; experiment: FRET assay for Kd, G124/125A probe; assay type: binding, human
Method: FRET assay for compound screening and determination of Kd value. FRET probes of WT, G124/125A, and G146A of the 5-12 G-quadruplex were synthesized and labeled with FAM (Ex. 490 nm/Em. 520 nm) and TAMRA (Ex. 560 nm/Em. 580 nm) at each end by MGW Operon Inc. The WT probe (50 nM) was annealed in a buffer containing 10 mM Tris-HCl (pH 7.5) and 5 mM KCl by heating at 95° C. for 5 min and slowly cooling to room temperature. Compounds (50 μM) and probe were incubated for 1 h at room temperature. The same volume of DMSO served as a control. For Kd value determination, the WT, G124/125A, and G146A probes were annealed, and then several concentrations of compound were treated for 1 h at room temperature. Dose-dependent fluorescence intensity at 520 nm was measured by a microplate reader (BioTek Synergy HT). The data were corrected with the blank signal of buffer and compound. The relative fluorescence intensity compared to DMSO was used for binding curve fitting to determine Kd value using GraphPad Prism software.
The hTERT core promoter region includes 12 runs of consecutive guanines that form two G-quadruplexes in tandem on the G-rich strand. […] When the G-quadruplex is folded, two fluorophores are in proximity, which leads to a decrease in FAM fluorescence. […]

N=C(N)NCCCS(=O)(=O)Nc1ccc(Nc2c3ccccc3nc3cc([N+](=O)[O-])ccc23)cc1 [GTC365]
decrease in the mRNA level of hTERT [1]: 25% | response (EC50) in WT versus mutant melanoma cell lines [2]: significant differential response | Kd [3]: ~400 nM
